Test results published in patent US20120301402A1, “RAP1A AS A MARKER FOR CARDIAC ARRHYTHMIA” (NATIONWIDE CHILDREN'S HOSPITAL, INC., priority 2011, published 2012).

Columns and labels:
[1] = tested on: isolated Rap1A-heterozygous cardiac myocytes; settings: combination with isoproterenol, waves resumed after washout
Description: Ventricular myocytes were isolated from male C57BL/6 control wild-type (WT) and Rap1A-heterozygous (Rap1a^+/−) mice. Whole hearts were cannulated and hung on a Langendorff apparatus and tissue treated for enzymatic digestion for 3-5 minutes. The ventricles were minced and myocytes were dissociated by trituration. Subsequently, the myocytes were filtered, centrifuged, and used for the studies within 6 hours of isolation. Calcium transients were measured by loading isolated myocytes with fluo 4-AM (10 μM) for 30 min, followed by an additional 30 min for intracellular deesterification. Cell fluorescence was measured by epifluorescence. The intracellular calcium concentration [Ca^2+]i of single cells was measured with excitation at 480±20 nm and emission at 535±25 nm. Data were expressed as ΔF/F0, where F is the fluorescence intensity, and F0 is the intensity at rest. Myocytes were stimulated at 1 Hz. Simultaneous measurement of shortening was also performed using edge detection. Data were expressed as cell shortening (μm). Myocytes were analyzed from 2-3 independent isolations per group.
Myocytes were analyzed from 2-3 independent isolations per group.

[2] = tested on: isolated ventricular myocytes; experiment: After-contractions protocol in isolated ventricular myocytes; assay type: cell-based, mice; settings: 5 s stimulation, counted 40 s after stimulation withdrawn
Description: FIG. 10 provides graphs showing that aftercontractions increase in heterozygous Rap1A myocytes. Further investigation of the spontaneous waves was performed using an “after-contractions” protocol by stimulating for 5 seconds and counting the number of after-contractions that occur 40 seconds after the stimulation is withdrawn. (A) Rap1A-heterozygous myocytes have increased after-contractions compared to control wild-type (WT) myocytes. (B) Inhibition of protein kinase C (PKC) by bisindolylmaleimide I (BIM, 1 μM) increases after-contractions in control wild-type (WT) and Rap1A-heterozygous myocytes. (C) Protein kinase C (PKC) activation by phorbol myristate acetate (PMA, 150 nM) leads to a decrease in after-contractions in Rap1A-heterozygous myocytes. (D) Summary data of WT/Rap1A-heterozygous+/− BIM (Inhibitor) and PMA (Activator). Both drugs were incubated in isolated ventricular myocytes before measurements were taken to activate or inhibit PKC.

In the case of `Cc1cccc(C)c1OCC(C)N` (stereo not shown) [Mexiletine], the “After-transients / spontaneous calcium waves” value [1] is reported as “rescued”.

For `CN(C)CCCn1cc(C2=C(c3c[nH]c4ccccc34)C(=O)NC2=O)c2ccccc21` [bisindolylmaleimide I], the After-contractions ([2]; Rap1A-heterozygous myocytes, 1 μM) was “increases” and the After-contractions ([2]; control wild-type (WT) myocytes, 1 μM) was “increases”.

`CCCCCCCCCCCCCC(=O)O[C@@H]1[C@@H](C)[C@@]2(O)[C@@H](C=C(CO)C[C@]3(O)C(=O)C(C)=C[C@@H]23)[C@@H]2C(C)(C)[C@]12OC(C)=O` [phorbol myristate acetate] was tested, and the After-contractions ([2]; Rap1A-heterozygous myocytes, 150 nM) was “decrease”.
